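Interpolation was linear, between the two tested concentrations surrounding the appropriate level; five concentrations were tested over 48 hours in 96-well plates. GI50 is the concentration that inhibits growth by half. Definition used: TGI = concentration required for complete inhibition of growth.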
Experiments:
Test in all cases: NCI anticancer screen, dose series, 48 h
HL-60(TB) leukemia = system: HL-60(TB) leukemia
HOP-92 NSCLC = system: HOP-92 NSCLC
SK-MEL-28 melanoma = system: SK-MEL-28 melanoma
SN12C renal = system: SN12C renal
SK-OV-3 ovarian = system: SK-OV-3 ovarian
HOP-62 NSCLC = system: HOP-62 NSCLC
CCRF-CEM leukemia = system: CCRF-CEM leukemia
KM12 colon = system: KM12 colon
NCI-H460 lung = system: NCI-H460 lung
OVCAR-4 ovarian = system: OVCAR-4 ovarian

## COc1ccc2c(c1)N(CCC1CCCCN1C)c1ccccc1S2 (stereo not given)
HL-60(TB) leukemia
  TGI: 24.8 µM
HOP-92 NSCLC
  TGI: 22.6 µM
SK-MEL-28 melanoma
  TGI: 14.2 µM
SN12C renal
  TGI: 29.4 µM
SK-OV-3 ovarian
  TGI: 31 µM
HOP-62 NSCLC
  TGI: 31.2 µM
CCRF-CEM leukemia
  TGI: 28.9 µM
KM12 colon
  TGI: 23.6 µM
NCI-H460 lung
  TGI: 21.5 µM
OVCAR-4 ovarian
  TGI: 24 µM

## Cc1cc2c(=O)cc(-c3ccc(C(=O)O)cc3)oc2c(C(=O)O)c1C
HL-60(TB) leukemia
  TGI: > 100 µM
HOP-92 NSCLC
  TGI: > 100 µM
SK-MEL-28 melanoma
  TGI: > 100 µM
SN12C renal
  TGI: > 100 µM
SK-OV-3 ovarian
  TGI: > 100 µM
HOP-62 NSCLC
  TGI: > 100 µM
CCRF-CEM leukemia
  TGI: > 100 µM
KM12 colon
  TGI: > 100 µM
NCI-H460 lung
  TGI: > 100 µM
OVCAR-4 ovarian
  TGI: > 100 µM

## CCOC(=O)c1c2c(n3cccc(F)c13)C(=O)c1ncccc1C2=O
HL-60(TB) leukemia
  GI50: 1.03 µM
  TGI: 3.69 µM
HOP-92 NSCLC
  GI50: 2.22 µM
  TGI: 9.24 µM
SK-MEL-28 melanoma
  GI50: 0.486 µM
  TGI: 19.4 µM
SN12C renal
  GI50: 0.457 µM
  TGI: 17.6 µM
SK-OV-3 ovarian
  GI50: 0.223 µM
  TGI: 16.3 µM
HOP-62 NSCLC
  GI50: 0.0494 µM
  TGI: 5.17 µM
CCRF-CEM leukemia
  GI50: 3.71 µM
  TGI: 37.5 µM
KM12 colon
  GI50: 0.539 µM
  TGI: 18.9 µM
NCI-H460 lung
  GI50: 0.0263 µM
  TGI: 1.12 µM
OVCAR-4 ovarian
  GI50: 1.8 µM
  TGI: 11.3 µM

## CC1=C(C(=O)Nc2ccc(Cl)c(Cl)c2)C(c2cccc(O)c2)NC(=S)N1 (stereo not given)
HL-60(TB) leukemia
  GI50: 11.2 µM
  TGI: 44.2 µM
HOP-92 NSCLC
  GI50: 13.6 µM
  TGI: 35.2 µM
SN12C renal
  GI50: 8.66 µM
  TGI: 20.1 µM
SK-OV-3 ovarian
  GI50: 10 µM
  TGI: 20.4 µM
HOP-62 NSCLC
  GI50: 17.3 µM
  TGI: 31.2 µM
KM12 colon
  GI50: 7.77 µM
  TGI: 16.6 µM
NCI-H460 lung
  GI50: 13.5 µM
  TGI: 21.4 µM
OVCAR-4 ovarian
  GI50: 12.4 µM
  TGI: > 50 µM

## COc1ccc2c(c1)CC[C@@H]1[C@@H]2CC[C@]2(C)c3c(cc(C(=O)c4ccccc4)c4sccc34)C[C@@H]12
HL-60(TB) leukemia
  GI50: 6.73 µM
  TGI: > 100 µM
SK-MEL-28 melanoma
  GI50: > 100 µM
  TGI: > 100 µM
SN12C renal
  GI50: > 100 µM
  TGI: > 100 µM
SK-OV-3 ovarian
  GI50: > 100 µM
  TGI: > 100 µM
HOP-62 NSCLC
  GI50: > 100 µM
  TGI: > 100 µM
CCRF-CEM leukemia
  GI50: > 100 µM
  TGI: > 100 µM
KM12 colon
  GI50: > 100 µM
  TGI: > 100 µM
NCI-H460 lung
  GI50: > 100 µM
  TGI: > 100 µM
OVCAR-4 ovarian
  GI50: 76.8 µM
  TGI: > 100 µM

## Cc1ccc(C2CC(c3cccc(Nc4ccncc4)c3)=NN2c2ccc(Cl)cc2)cc1 (stereo not given)
HL-60(TB) leukemia
  GI50: 1.92 µM
  TGI: 4 µM
HOP-92 NSCLC
  GI50: 1.38 µM
  TGI: 2.74 µM
SK-MEL-28 melanoma
  GI50: 1.83 µM
  TGI: 3.32 µM
SN12C renal
  GI50: 1.66 µM
  TGI: 3.13 µM
SK-OV-3 ovarian
  GI50: 1.65 µM
  TGI: 3.17 µM
CCRF-CEM leukemia
  GI50: 2.64 µM
  TGI: 7.66 µM
KM12 colon
  GI50: 1.62 µM
  TGI: 2.99 µM
NCI-H460 lung
  GI50: 1.72 µM
  TGI: 3.34 µM
OVCAR-4 ovarian
  GI50: 1.69 µM
  TGI: 3.35 µM

## O=C1[C@H](c2ccccc2)C2c3ccccc3CCN12 (stereo not given in full)
HL-60(TB) leukemia
  GI50: > 100 µM
  TGI: > 100 µM
SK-MEL-28 melanoma
  GI50: > 100 µM
  TGI: > 100 µM
SN12C renal
  GI50: > 100 µM
  TGI: > 100 µM
SK-OV-3 ovarian
  GI50: > 100 µM
  TGI: > 100 µM
HOP-62 NSCLC
  GI50: > 100 µM
  TGI: > 100 µM
CCRF-CEM leukemia
  GI50: > 100 µM
  TGI: > 100 µM
KM12 colon
  GI50: > 100 µM
  TGI: > 100 µM
NCI-H460 lung
  GI50: > 100 µM
  TGI: > 100 µM
OVCAR-4 ovarian
  GI50: > 100 µM
  TGI: > 100 µM

## COC(=O)c1cc(O)ccc1NC(=O)c1ccc(O)cc1
HL-60(TB) leukemia
  TGI: > 100 µM
HOP-92 NSCLC
  TGI: > 100 µM
SK-MEL-28 melanoma
  TGI: > 100 µM
SK-OV-3 ovarian
  TGI: > 100 µM
HOP-62 NSCLC
  TGI: > 100 µM
CCRF-CEM leukemia
  TGI: > 100 µM
KM12 colon
  TGI: > 100 µM
NCI-H460 lung
  TGI: > 100 µM
OVCAR-4 ovarian
  TGI: > 100 µM

## NS(=O)(=O)c1ccc(NCc2cnc3ccccc3c2)cc1
HL-60(TB) leukemia
  TGI: 3.96 µM
HOP-92 NSCLC
  TGI: > 100 µM
SK-MEL-28 melanoma
  TGI: > 100 µM
SN12C renal
  TGI: > 100 µM
SK-OV-3 ovarian
  TGI: > 100 µM
HOP-62 NSCLC
  TGI: > 100 µM
KM12 colon
  TGI: > 100 µM
NCI-H460 lung
  TGI: > 100 µM
OVCAR-4 ovarian
  TGI: > 100 µM

## Cc1ccccc1C(C#N)/C(=N/NC(=O)C(=O)NN)C(=O)Nc1cccc(C(F)(F)F)c1 (stereo not given)
HL-60(TB) leukemia
  TGI: > 100 µM
HOP-92 NSCLC
  TGI: > 100 µM
SK-MEL-28 melanoma
  TGI: > 100 µM
SN12C renal
  TGI: > 100 µM
HOP-62 NSCLC
  TGI: > 100 µM
CCRF-CEM leukemia
  TGI: > 100 µM
KM12 colon
  TGI: > 100 µM
NCI-H460 lung
  TGI: > 100 µM
OVCAR-4 ovarian
  TGI: > 100 µM

## CCOCC[P+](c1ccccc1)(c1ccccc1)c1ccccc1
HL-60(TB) leukemia
  GI50: 12.2 µM
  TGI: 36 µM
SK-MEL-28 melanoma
  GI50: 16 µM
  TGI: 70.6 µM
SN12C renal
  GI50: 24.6 µM
  TGI: > 100 µM
SK-OV-3 ovarian
  GI50: 20.1 µM
  TGI: 79.8 µM
HOP-62 NSCLC
  GI50: 29.7 µM
  TGI: > 100 µM
CCRF-CEM leukemia
  GI50: 23 µM
  TGI: > 100 µM
KM12 colon
  GI50: 11.2 µM
  TGI: > 100 µM
NCI-H460 lung
  GI50: 25.7 µM
  TGI: > 100 µM
OVCAR-4 ovarian
  GI50: 11.9 µM
  TGI: > 100 µM

## COc1ccc(/C=C/C(=O)c2ccc(NC(=O)CSc3nnc(-c4cc(OC)c(OC)c(OC)c4)o3)cc2)cc1
HOP-92 NSCLC
  GI50: 1.93 µM
  TGI: 4.23 µM
SK-MEL-28 melanoma
  GI50: 1.74 µM
  TGI: 3.4 µM
SN12C renal
  GI50: 1.83 µM
  TGI: 3.57 µM
SK-OV-3 ovarian
  GI50: 2.42 µM
  TGI: 5.68 µM
HOP-62 NSCLC
  GI50: 2.13 µM
  TGI: 4.53 µM
CCRF-CEM leukemia
  GI50: 1.84 µM
  TGI: 4.56 µM
KM12 colon
  GI50: 1.77 µM
  TGI: 3.4 µM
NCI-H460 lung
  GI50: 2 µM
  TGI: 3.85 µM
OVCAR-4 ovarian
  GI50: 2 µM
  TGI: 4.62 µM

## O=C1CSc2ccncc2N1
HL-60(TB) leukemia
  TGI: > 100 µM
SK-MEL-28 melanoma
  TGI: > 100 µM
SN12C renal
  TGI: > 100 µM
HOP-62 NSCLC
  TGI: > 100 µM
CCRF-CEM leukemia
  TGI: > 100 µM
NCI-H460 lung
  TGI: > 100 µM
OVCAR-4 ovarian
  TGI: > 100 µM

## CNC(=S)N/N=C(/C)CCC/C(C)=N/NC(=S)NC
HL-60(TB) leukemia
  TGI: > 100 µM
HOP-92 NSCLC
  TGI: > 100 µM
SK-MEL-28 melanoma
  TGI: > 100 µM
SN12C renal
  TGI: > 100 µM
SK-OV-3 ovarian
  TGI: > 100 µM
HOP-62 NSCLC
  TGI: > 100 µM
KM12 colon
  TGI: > 100 µM
NCI-H460 lung
  TGI: > 100 µM
OVCAR-4 ovarian
  TGI: 29.2 µM

## COc1cc([C@@H]2c3cc4c(cc3[C@@H](NC(=O)c3ccc([N+](=O)[O-])cc3)C3COC(=O)[C@@H]32)OCO4)cc(OC)c1O (stereo not given in full)
HL-60(TB) leukemia
  TGI: 0.407 µM
HOP-92 NSCLC
  TGI: 40.2 µM
SK-MEL-28 melanoma
  TGI: 89 µM
SN12C renal
  TGI: 1.37 µM
SK-OV-3 ovarian
  TGI: 1.89 µM
HOP-62 NSCLC
  TGI: 1.12 µM
KM12 colon
  TGI: 4.19 µM
NCI-H460 lung
  TGI: 2.38 µM
OVCAR-4 ovarian
  TGI: > 100 µM

## Cn1c(C2CC(C)(C)c3c2c2ccccc2n3C)cc2ccccc21 (stereo not given)
HL-60(TB) leukemia
  TGI: > 304 µM
HOP-92 NSCLC
  TGI: > 304 µM
SK-MEL-28 melanoma
  TGI: > 304 µM
SN12C renal
  TGI: > 304 µM
SK-OV-3 ovarian
  TGI: > 304 µM
HOP-62 NSCLC
  TGI: > 304 µM
CCRF-CEM leukemia
  TGI: > 304 µM
KM12 colon
  TGI: > 304 µM
NCI-H460 lung
  TGI: > 304 µM

## O=C(CN/C=C\C(=O)c1cc(Cl)ccc1Cl)c1ccccc1
HL-60(TB) leukemia
  GI50: 73.4 µM
  TGI: > 100 µM
SK-MEL-28 melanoma
  GI50: 41.9 µM
  TGI: > 100 µM
SN12C renal
  GI50: 25.9 µM
  TGI: 57.1 µM
SK-OV-3 ovarian
  GI50: 47.1 µM
  TGI: > 100 µM
HOP-62 NSCLC
  GI50: 34.5 µM
  TGI: > 100 µM
CCRF-CEM leukemia
  GI50: 18.5 µM
  TGI: 36.7 µM
KM12 colon
  GI50: 23.8 µM
  TGI: 55.3 µM
NCI-H460 lung
  GI50: 32.3 µM
  TGI: > 100 µM
OVCAR-4 ovarian
  GI50: 49.8 µM
  TGI: > 100 µM

— PubChem BioAssay (NCI)
